This test deals with T1, plasma kallikrein (PKa) (Homo sapiens, UniProt P03952).
T1 construct: purchased R & D 2497-SE
Nature of the test: Inhibitory activity against plasma kallikrein in vitro (fluorescence intensity enzyme assay, Pro-Phe-Arg-AMC substrate). The format is biochemical. As to conditions: Pro-Phe-Arg-AMC substrate. As to the method: Test of the inhibitory activities of the compounds of the present invention against plasma kallikrein (PKa), KLK1 and FXIa in vitro.
The final concentrations of enzyme protein and Pro-Phe-Arg-AMC in the reaction mixture were 10 nM and 60 µM, respectively. The starting concentration of the positive reference substance Avoralstat was 100 nM, 3-fold dilution, 10 + 0 dose. 0.05 µL of compound in 100% DMSO was delivered to a 384-well plate by an acoustic liquid delivery technique (Echo665; nanoliter range). Compound duplex test. […] IC50 values and nonlinear regression curve fitting were obtained using GraphPad Prism software.

Setting [1] is: plasma kallikrein enzyme assay, read-out: PKa IC50.

Where two headings read alike, the source gives them in different places.

T1 sequence (P03952 391-638 limits assumed): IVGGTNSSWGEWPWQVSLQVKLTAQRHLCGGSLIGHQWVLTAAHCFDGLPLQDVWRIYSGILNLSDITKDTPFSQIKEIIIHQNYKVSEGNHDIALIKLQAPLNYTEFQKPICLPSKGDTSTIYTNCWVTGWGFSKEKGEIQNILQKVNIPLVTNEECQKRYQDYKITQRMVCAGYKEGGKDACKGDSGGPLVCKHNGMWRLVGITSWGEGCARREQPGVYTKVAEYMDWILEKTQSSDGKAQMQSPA
T1 sequence (P03952 20-390 partner limits assumed): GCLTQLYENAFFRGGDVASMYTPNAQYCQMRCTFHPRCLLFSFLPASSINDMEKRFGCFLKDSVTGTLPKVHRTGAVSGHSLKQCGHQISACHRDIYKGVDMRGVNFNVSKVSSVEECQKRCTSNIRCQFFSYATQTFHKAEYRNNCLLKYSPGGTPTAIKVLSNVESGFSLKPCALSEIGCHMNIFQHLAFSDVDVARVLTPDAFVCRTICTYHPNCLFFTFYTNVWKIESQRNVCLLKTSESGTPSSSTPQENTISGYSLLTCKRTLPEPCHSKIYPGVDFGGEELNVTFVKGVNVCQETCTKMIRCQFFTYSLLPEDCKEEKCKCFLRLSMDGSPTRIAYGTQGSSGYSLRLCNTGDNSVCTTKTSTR

For `N=C(N)c1ccc(CNC(=O)c2cnn(Cc3ccc(OCC4CC4)cc3)c2)cc1` [Compound 360], under setting [1], the IC50 was found to be 3.29 nM.

For `COc1ccc(F)c(CNC(=O)c2cn(Cc3ccc(Cn4cc(F)ccc4=O)cc3)nc2OCCF)c1F` [Compound 226], under setting [1], the IC50 came to 10.9 nM.

As to `N=C(N)c1cnc(CNC(=O)c2cnn(Cc3ccc(CC4CC4)cc3)c2)c(F)c1` [Compound 358], under setting [1], the IC50 was determined as 6.06 nM.

For the molecule `O=C(NCc1cc2cnccc2[nH]1)c1cn(Cc2ccc(Oc3ccccc3)cc2)nc1C(F)(F)F` [Compound 115], the concentration for half-maximal inhibition (IC50) under setting [1] is > 100 nM.

For `CC(C)CNc1ccnc(CNC(=O)c2cn(Cc3ccc(Cn4ccccc4=O)cc3)nc2C2COC2)c1F` [Compound 269], the IC50 under setting [1] was > 1000 nM.

Regarding `COCc1nn(Cc2ccc(Oc3ccccc3)cc2)cc1C(=O)NCc1nccc(OC)c1F` [Compound 117], under setting [1], the IC50 is > 1000 nM.

With `COc1ccnc(CNC(=O)c2cn(Cc3ccc(Cn4ccccc4=O)cc3)nc2-c2cnc(O)nc2)c1F` [Compound 165], the IC50 under setting [1] was 34.5 nM.

In the case of `CC[C@@H](COC)OCc1nn(Cc2ccc(Cn3ccccc3=O)cc2)cc1C(=O)NCc1nccc(OC)c1F` [Compound 172], the IC50 under setting [1] was determined as 113 nM.

For `Nc1ncc(CNC(=O)c2cnn(Cc3ccc(Cn4ccccc4=O)cc3)c2)s1` [Compound 36], the 50% inhibitory concentration (IC50) under setting [1] worked out at 523 nM.

Take `Cn1cc(Cl)c2cnc(CNC(=O)c3cnn(Cc4ccc(Cn5ccccc5=O)cc4)c3)c(F)c21` [Compound 367]: under setting [1], the IC50 is 43 nM.

In the case of `COCc1nn(Cc2ccc(N3CCOCC3=O)cc2)cc1C(=O)NCc1nccc(OC)c1F` [Compound 89], the 50% inhibitory concentration (IC50) under setting [1] is > 100 nM.

With `COc1ccnc(CNC(=O)c2ncn(Cc3ccc(Cn4cc(F)ccc4=O)cc3)n2)c1F` [Compound 32], the IC50 under setting [1] is > 100 nM.

With `Cc1cc(C(=N)N)nc(C)c1CNC(=O)c1cnn(Cc2ccc(CC3CC3)cc2)c1` [Compound 323], the half-maximal inhibitory concentration (IC50) under setting [1] was found to be 65.6 nM.

Take `COc1ccnc(CNC(=O)c2cn(Cc3ccc(Cn4c(C(F)(F)F)nccc4=O)cc3)nc2C(F)(F)F)c1F` [Compound 198]: under setting [1], the IC50 is > 1000 nM.

With `COc1ccc(F)c(CNC(=O)c2cn(Cc3ccc(Cn4cc(F)ccc4=O)cc3)nc2COC2(C)COC2)c1F` [Compound 236], the IC50 under setting [1] came out at 16.6 nM.

In the case of `Nc1cc2c(cn1)[C@@H](NC(=O)c1ncn(Cc3ccc(Cn4ccccc4=O)cc3)n1)CO2` [Compound 82], the IC50 under setting [1] stood at 26.6 nM.

Take `COCc1nn(Cc2ccc(-n3ccccc3=O)cc2)cc1C(=O)NCc1nc2c(s1)CNCC2` [Compound 107]: the IC50 under setting [1] is > 100 nM.

As for `N#Cc1cc(N2CC3C(C2)C3(F)F)ccc1Cn1cc(C(=O)NCc2cc3ccncc3[nH]2)c(C(F)(F)F)n1` (stereo not drawn) [Compound 178], the IC50 under setting [1] is 7.74 nM.

On to `COc1ccc(F)c(CNC(=O)c2cn(Cc3ccc(Cn4ccccc4=O)cc3)nc2CN2C(=O)CCC2=O)c1F` [Compound 248], for which the IC50 under setting [1] stood at 2.85 nM.

For `COc1ccnc(CNC(=O)c2cn(Cc3ccc(Cn4ccccc4=O)cc3)nc2CN2CCCC2=O)c1F` [Compound 169], the IC50 under setting [1] came out at 11.9 nM.

`COc1ccnc(COC(=O)c2cn(Cc3ccc(Cn4cc(F)ccc4=O)cc3)nc2NC2(C)COC2)c1F` [Compound 284]: the IC50 under setting [1] amounted to 3.41 nM.

Regarding `COc1ccnc(CNC(=O)c2cn(Cc3ccc(Cn4ccccc4=O)cc3)nc2N2CCOCC2)c1F` [Compound 224], the IC50 under setting [1] worked out at 28.2 nM.

For the molecule `COc1ccc(F)c(CNC(=O)c2cn(Cc3ccc(Cn4cc(F)ccc4=O)cc3)nc2N2CC(F)(F)C2)c1F` [Compound 281], under setting [1], the half-maximal inhibitory concentration (IC50) was determined as 24.9 nM.

Regarding `O=C(NCc1nccc2[nH]ccc12)c1cn(Cc2ccc(Cn3ccccc3=O)cc2)nc1C1COC1` [Compound 325], the IC50 under setting [1] was 38.6 nM.

Regarding `COc1ccnc(CNC(=O)c2cn(Cc3ccc(CN4CC(F)(F)C4)cc3)nc2C(F)(F)F)c1F` [Compound 124], under setting [1], the 50% inhibitory concentration (IC50) is > 1000 nM.

For the molecule `COCc1nn(Cc2ccc(Cn3ccccc3=O)cc2)cc1C(=O)NCc1c(C)cncc1C` [Compound 114], the IC50 under setting [1] was > 100 nM.

On to `O=C(NCc1cc2ccncc2[nH]1)c1cn(Cc2ccc(Oc3ccccc3)cc2)nc1C(F)(F)F` [Compound 186], for which the IC50 under setting [1] was 709 nM.

`CCN(CC)CCOCc1nn(Cc2ccc(Cn3ccccc3=O)cc2)cc1C(=O)NCc1nccc(OC)c1F` [Compound 239]: the IC50 under setting [1] came out at 6.95 nM.

Regarding `COCc1nn(Cc2ccc(N3CC4C(C3)C4(F)F)cc2C#N)cc1C(=O)NCc1cn2c(n1)CNCC2` (stereo not drawn) [Compound 104], the IC50 under setting [1] was > 100 nM.

`Nc1cc2c(cn1)C(NC(=O)c1ncn(Cc3c(F)c(F)c(Cn4ccccc4=O)c(F)c3F)n1)CC2` (stereo not drawn) [Compound 51]: the IC50 under setting [1] is > 100 nM.

On to `COc1ccc(F)c(CNC(=O)c2cn(Cc3ccc(Cn4ccccc4=O)cc3)nc2C2CC(C)(OC)C2)c1F` (stereo not drawn) [Compound 211], for which the IC50 under setting [1] was determined as 8.34 nM.

`O=C(NCc1nccc(NC2CCC2)c1F)c1cn(Cc2ccc(Cn3ccccc3=O)cc2)nc1C1COC1` [Compound 273]: the IC50 under setting [1] was > 1000 nM.

With `COCCn1c(CNC(=O)c2cn(Cc3ccc(Cn4ccccc4=O)cc3)nc2COC)cc2cnccc21` [Compound 192], the concentration for half-maximal inhibition (IC50) under setting [1] is > 1000 nM.

As for `COCc1nn(Cc2ccc(Cn3ccccc3=O)cc2)cc1C(=O)NCc1cc2cnccc2[nH]1` [Compound 108], under setting [1], the IC50 turned out to be 36.8 nM.

On to `Cn1c(CNC(=O)c2cn(Cc3ccc(Cn4ccccc4=O)cc3)nc2C(F)(F)F)cc2cnccc21` [Compound 196], for which the IC50 under setting [1] was determined as 15.3 nM.

For the molecule `Cc1nc(N)nc(C)c1CNC(=O)c1ncn(Cc2ccc(Cn3cc(F)ccc3=O)cc2)n1` [Compound 26], the 50% inhibitory concentration (IC50) under setting [1] was found to be 699 nM.

Regarding `COc1ccc(F)c(CNC(=O)c2cn(Cc3ccc(Cn4cc(F)ccc4=O)c(F)c3)nc2C2CC(F)(F)C2)c1F` [Compound 228], the IC50 under setting [1] turned out to be 16.4 nM.

Consider `O=C(NCc1nccc(NC2COC2)c1F)c1cn(Cc2ccc(Cn3ccccc3=O)cc2)nc1N1CC(F)(F)C1` [Compound 332], for which the IC50 under setting [1] was 540 nM.

As to `O=C(NCc1ncc2ccn(CCO)c2c1F)c1cnn(Cc2ccc(Cn3ccccc3=O)cc2)c1` [Compound 369, N-((7-fluoro-1-(2-hydroxyethyl)-1H-pyrrolo[3,2-c]pyridin-6-yl)methyl)-1-(4-((2-oxopyridin-1(2H)-yl)methyl]benzyl)-1H-pyrazole-4-carboxamide], the IC50 under setting [1] came to 787 nM.

Regarding `COCc1nn(Cc2ccc(-n3ccccc3=O)cc2)cc1C(=O)NC1CCc2c1ncn2C` (stereo not drawn) [Compound 96], the IC50 under setting [1] was > 100 nM.

Consider `COc1ccnc(CNC(=O)c2cn(Cc3ccc(Cn4ccccc4=O)cc3)nc2-c2cncnc2)c1F` [Compound 304], for which, under setting [1], the IC50 is 7.24 nM.

Consider `COc1ccc(F)c(CNC(=O)c2cn(Cc3ccc(Cn4ccccc4=O)cc3)nc2COCCN2CCCC2)c1F` [Compound 230], for which the concentration for half-maximal inhibition (IC50) under setting [1] was 9.8 nM.

For the molecule `COCc1nn(Cc2ccc(Cn3c(=O)ccc4ccccc43)cc2)cc1C(=O)NCc1nccc(OC)c1F` [Compound 159], the IC50 under setting [1] is 93.8 nM.

For the molecule `Nc1cc2c(cn1)[C@@H](NC(=O)c1ncn(Cc3cn4cc(C5CC5)ccc4n3)n1)CC2` [Compound 46], the concentration for half-maximal inhibition (IC50) under setting [1] is > 100 nM.

In the case of `COCC1(F)CN(Cc2nn(Cc3ccc(Cn4ccccc4=O)cc3)cc2C(=O)NCc2nccc(OC)c2F)C1` [Compound 205, 3-((3-fluoro-3-(methoxymethyl)azetidin-1-yl)methyl)-N-(3-fluoro-4-methoxypyridin-2-yl)methyl], the midpoint of inhibition (PKa IC50, plasma kallikrein enzyme assay), the IC50, lay at 8.98 nM.

In the case of `O=C(NCc1nccc(N2CCCC2)c1F)c1cn(Cc2ccc(CC3CC3)cc2)nc1C1COC1` [Compound 333], the IC50 under setting [1] was > 1000 nM.

In the case of `COc1ccnc(CNC(=O)c2cn(Cc3ccc(Cn4ccccc4=O)cc3)nc2CN2CCC(OC)CC2)c1F` [Compound 201], the IC50 under setting [1] worked out at 10.8 nM.

As for `COc1ccc(Cl)c(CNC(=O)c2cn(Cc3ccc(Cn4ccccc4=O)cc3)nc2N2CC(F)(F)C2)c1F` [Compound 290], the IC50 under setting [1] turned out to be 4.62 nM.

As to `COCc1nn(Cc2ccc(Cn3ccccc3=O)cc2)cc1C(=O)NCc1cc2cnccc2n1C` [Compound 139], the IC50 under setting [1] was found to be 12.6 nM.

In the case of `N=C(N)c1ccc(CNC(=O)c2cnn(Cc3c(Cl)cc(OCC4CC4)cc3Cl)c2)cc1` [Compound 359], the IC50 under setting [1] amounted to 3.15 nM.

In the case of `N=C(N)c1cnc(CNC(=O)c2cnn(Cc3ccc(CC4CC4)cc3)c2)cn1` [Compound 330], the IC50 under setting [1] was found to be 855 nM.

For `COc1ccnc(CNC(=O)c2cn(Cc3ccc(Cn4ccccc4=O)cc3)nc2N2CC3(COC3)C2)c1F` [Compound 288], the 50% inhibitory concentration (IC50) under setting [1] turned out to be 11.5 nM.

With `COc1ccc(F)c(CNC(=O)c2cn(Cc3ccc(Cn4cc(F)ccc4=O)cc3)nc2[C@H](C)C2COC2)c1F` [Compound 179], the IC50 under setting [1] is 15 nM.

On to `CNc1ccnc(CNC(=O)c2cn(Cc3ccc(Cn4ccccc4=O)cc3)nc2N2CC(F)(F)C2)c1F` [Compound 265], for which, under setting [1], the IC50 amounted to 6.91 nM.

Turning to `COc1ccnc(CNC(=O)c2cn(Cc3ccc(Cn4ccccc4=O)cc3)nc2C2CN(C(=O)C(C)C)C2)c1F` [Compound 173], the IC50 under setting [1] was determined as 11.8 nM.

With `COc1ccc(F)c(CNC(=O)c2cn(Cc3ccc(Cn4cc(F)ccc4=O)cc3)nc2[C@@H](C)C2COC2)c1F` [Compound 180], under setting [1], the IC50 was 7.88 nM.

With `COc1ccnc(CNC(=O)c2cn(Cc3ccc(Cn4ccccc4=O)cc3)nc2COC2CCCOC2)c1F` (stereo not drawn) [Compound 294], the IC50 under setting [1] is 10.6 nM.

For the molecule “N-((3-fluoro-4-methoxypyridin-2-yl)methyl)-3-(methoxymethyl)-1-(4-((2-oxo-2,3-dihydro-1H-pyrrolo[3,2-b]pyridin-1-yl)methyl]benzyl)-1H-pyrazole-4-carboxamide [Compound 113]”, the IC50 under setting [1] was > 100 nM.

Take `COc1ccnc(CNC(=O)c2cn(Cc3ccc(Cn4ccccc4=O)cc3)nc2CN2CC3(COC3)C2)c1F` [Compound 238]: the IC50 under setting [1] was found to be 9.15 nM.

`COc1ccnc(CNC(=O)c2cn(Cc3ccc(Cn4ccccc4=O)cc3)nc2NC2(C)COC2)c1F` [Compound 297]: the half-inhibitory concentration (IC50) under setting [1] came out at 2.83 nM.

Values taken from patent publication EP4737450A1 (Longwood Pharmaceuticals (Hangzhou) Co., Ltd, priority 2023, dated 2025).
